A short description of assay [1]: […] kinase assay, P-81 phosphocellulose. Format: biochemical, Homo sapiens. As to conditions: read-out: MTT Assay ^a, IC50 (μM) / K-562.
For assay [2], the target named is T1, (Homo sapiens, UniProt P00519).
T1 construct: gene ABL1; Abl kinase
The assay is described as follows: […] kinase assay, P-81 phosphocellulose. Type of assay: biochemical.

The target in a further assay is T2, CDK2/Cyclin E (Homo sapiens, UniProt P24941).
T2 construct: kinase complex; with G1/S-specific cyclin-E1
The assay can be described thus: […] kinase assay, P-81 phosphocellulose. Type of assay: biochemical.

Setting [3] is: read-out: MTT Assay ^a, IC50 (μM) / K-562.

Like-named read-outs stand apart in the source and are kept apart here.

T1 sequence (P00519 whole entry): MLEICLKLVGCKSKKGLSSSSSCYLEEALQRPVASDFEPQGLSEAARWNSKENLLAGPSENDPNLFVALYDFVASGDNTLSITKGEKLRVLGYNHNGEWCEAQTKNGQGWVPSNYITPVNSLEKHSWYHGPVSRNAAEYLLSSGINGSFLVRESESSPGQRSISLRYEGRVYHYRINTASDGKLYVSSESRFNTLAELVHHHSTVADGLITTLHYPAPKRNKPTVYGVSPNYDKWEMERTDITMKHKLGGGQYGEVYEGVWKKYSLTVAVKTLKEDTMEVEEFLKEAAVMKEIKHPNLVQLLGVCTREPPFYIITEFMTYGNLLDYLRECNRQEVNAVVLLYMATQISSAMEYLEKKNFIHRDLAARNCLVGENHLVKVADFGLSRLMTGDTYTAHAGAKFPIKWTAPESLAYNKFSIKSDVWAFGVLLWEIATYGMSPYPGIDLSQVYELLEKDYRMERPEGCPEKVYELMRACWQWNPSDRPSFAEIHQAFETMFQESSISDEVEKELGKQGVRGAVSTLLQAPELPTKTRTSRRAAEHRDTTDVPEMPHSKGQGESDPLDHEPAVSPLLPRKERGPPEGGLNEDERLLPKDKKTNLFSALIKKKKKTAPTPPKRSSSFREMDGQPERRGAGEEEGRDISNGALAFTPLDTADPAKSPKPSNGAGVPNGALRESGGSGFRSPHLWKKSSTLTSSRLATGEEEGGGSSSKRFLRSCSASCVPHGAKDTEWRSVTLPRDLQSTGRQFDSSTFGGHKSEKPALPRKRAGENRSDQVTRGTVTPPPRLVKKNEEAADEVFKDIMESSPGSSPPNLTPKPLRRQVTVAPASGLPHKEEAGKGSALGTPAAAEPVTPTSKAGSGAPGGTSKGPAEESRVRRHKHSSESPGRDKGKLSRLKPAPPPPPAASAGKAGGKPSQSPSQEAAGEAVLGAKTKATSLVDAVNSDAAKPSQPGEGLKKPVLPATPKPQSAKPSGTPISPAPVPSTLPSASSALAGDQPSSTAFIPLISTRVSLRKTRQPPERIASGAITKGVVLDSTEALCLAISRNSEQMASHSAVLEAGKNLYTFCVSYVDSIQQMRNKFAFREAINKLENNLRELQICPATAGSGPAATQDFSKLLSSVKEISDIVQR

`CSc1nnc2[nH]nc(C)c2n1` [compound 1, 3-methyl-5-methylsulfanyl-1H-pyrazolo[4,3-e][1,2,4]triazine]: the IC50 in assay [1] and in assay [2] (setting [3]) was greater than 100 µM each time.
Regarding `CSc1nnc2c(n1)c(C)nn2CCO` [compound 2, 1-(2-hydroxyethyl)-3-methyl–5-methylsulfanyl-1H-pyrazolo[4,3-e][1,2,4]triazine], the IC50 in assay [1] and in assay [2] (setting [3]) was greater than 100 µM throughout.
In the case of `CSc1nnc2nn(CCO)c(C)c2n1` [compound 3, 2-(2-hydroxyethyl)-3-methyl-5-methylsulfanyl-2H-pyrazolo[4,3-e][1,2,4]triazine], the IC50 in assay [1] and in assay [2] (setting [3]) was greater than 100 µM in each case.
On to `CSc1nnc2c(n1)c(C)nn2CC(O)CO` (centres unmarked) [compound 4, 1-(2,3-dihydroxypropyl)-3-methyl–5-methylsulfanyl-1H-pyrazolo[4,3-e][1,2,4]triazine], for which the IC50 in assay [1] and in assay [2] (setting [3]) was greater than 100 µM throughout.
Consider `CSc1nnc2c(n1)c(C)nn2CCBr` [compound 6, 1-(2-bromoethyl)-3-methyl-5-methylsulfanyl-1H-pyrazolo[4,3-e][1,2,4]triazine], for which the IC50 in assay [1] and in assay [2] (setting [3]) was greater than 100 µM each time.
For `CCOC(=O)C(CCn1nc(C)c2nc(SC)nnc21)C(=O)OCC` [compound 7, 1-(ethyl 2-carboethoxybutanoate-4-yl)-3-methyl-5-methylsulfanyl-1H-pyrazolo[4,3-e][1,2,4]triazine], the IC50 (against CDK2/Cyclin E; in assay [2] (read-out: IC50 (μM) ^a / CDK2/Cyclin E)) was greater than 50 µM in each case.
For the molecule `CSc1nnc2c(n1)c(C)nn2CCC(CO)CO` [compound 8, 1-[(4-hydroxy-3-hydroxymethyl)butyl]-3-methyl-5-methylsufanyl-1H-pyrazolo[4,3-e][1,2,4]triazine], the IC50 in assay [1] and in assay [2] (setting [3]) was greater than 100 µM throughout.

Source of the values: article PMC6982861, “Synthesis, Structural Characterization, and Biological Activity of New Pyrazolo[4,3-e][1,2,4]triazine Acyclonucleosides” (Molecules, 2020).
